From ChEMBL document CHEMBL4813950, “Comparing the efficacy and selectivity of Ck2 inhibitors. A phosphoproteomics approach” (Eur J Med Chem, 2021)
Activity calls are given as the source filed them. The rule behind the calls is not given here.

Assays:
Type in all cases: cell-based
[1] = biological target: UPF0690 protein C1orf52 homolog (Mus musculus) (UniProt Q9CWU4); test: Inhibition of UPF0690 protein C1orf52 homolog in mouse C2C12 cells assessed as reduction in phospho-sites occupancy at 4 uM after 5 hrs by SILAC based LC-MS/MS analysis relative to control
Sequence of UPF0690 protein C1orf52 homolog (Mus musculus) (Q9CWU4 whole entry): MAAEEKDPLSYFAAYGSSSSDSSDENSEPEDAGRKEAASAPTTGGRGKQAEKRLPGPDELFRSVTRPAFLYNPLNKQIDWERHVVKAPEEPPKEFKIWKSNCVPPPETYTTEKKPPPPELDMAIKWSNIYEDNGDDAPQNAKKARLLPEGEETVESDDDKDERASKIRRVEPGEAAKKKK

[2] = biological target: Nucleolar RNA helicase 2 (Mus musculus) (UniProt Q9JIK5); test: Inhibition of Ddx21 in mouse C2C12 cells assessed as reduction in phospho-sites occupancy at 4 uM after 5 hrs by SILAC based LC-MS/MS analysis relative to control
Sequence of Nucleolar RNA helicase 2 (Mus musculus) (Q9JIK5 whole entry, the tested form may be a part): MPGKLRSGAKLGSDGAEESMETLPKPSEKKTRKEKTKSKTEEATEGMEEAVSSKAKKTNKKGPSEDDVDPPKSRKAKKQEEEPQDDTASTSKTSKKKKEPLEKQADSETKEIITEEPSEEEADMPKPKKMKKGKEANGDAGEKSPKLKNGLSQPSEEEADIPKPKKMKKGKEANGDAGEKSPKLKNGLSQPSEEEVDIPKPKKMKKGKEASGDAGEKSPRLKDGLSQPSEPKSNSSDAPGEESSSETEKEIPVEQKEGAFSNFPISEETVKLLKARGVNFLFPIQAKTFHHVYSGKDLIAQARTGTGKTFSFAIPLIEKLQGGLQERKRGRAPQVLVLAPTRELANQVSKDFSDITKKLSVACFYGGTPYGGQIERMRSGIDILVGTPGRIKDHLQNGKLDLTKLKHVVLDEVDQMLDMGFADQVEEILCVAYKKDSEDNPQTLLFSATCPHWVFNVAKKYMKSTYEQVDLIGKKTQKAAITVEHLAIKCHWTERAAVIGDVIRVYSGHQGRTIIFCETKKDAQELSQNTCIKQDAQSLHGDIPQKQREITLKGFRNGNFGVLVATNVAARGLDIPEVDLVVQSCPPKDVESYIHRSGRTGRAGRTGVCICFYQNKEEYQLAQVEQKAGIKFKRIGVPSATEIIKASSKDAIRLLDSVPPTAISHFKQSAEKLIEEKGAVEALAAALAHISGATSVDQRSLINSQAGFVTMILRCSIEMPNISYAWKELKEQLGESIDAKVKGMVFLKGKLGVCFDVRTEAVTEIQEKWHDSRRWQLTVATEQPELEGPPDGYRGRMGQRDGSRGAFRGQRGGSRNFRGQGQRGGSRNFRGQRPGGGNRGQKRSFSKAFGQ

[3] = biological target: Zinc finger and BTB domain-containing protein 7A (Mus musculus) (UniProt O88939); test: Inhibition of Zbtb7a in mouse C2C12 cells assessed as reduction in phospho-sites occupancy at 4 uM after 5 hrs by SILAC based LC-MS/MS analysis relative to control
Sequence of Zinc finger and BTB domain-containing protein 7A (Mus musculus) (O88939 whole entry, the tested form may be a part): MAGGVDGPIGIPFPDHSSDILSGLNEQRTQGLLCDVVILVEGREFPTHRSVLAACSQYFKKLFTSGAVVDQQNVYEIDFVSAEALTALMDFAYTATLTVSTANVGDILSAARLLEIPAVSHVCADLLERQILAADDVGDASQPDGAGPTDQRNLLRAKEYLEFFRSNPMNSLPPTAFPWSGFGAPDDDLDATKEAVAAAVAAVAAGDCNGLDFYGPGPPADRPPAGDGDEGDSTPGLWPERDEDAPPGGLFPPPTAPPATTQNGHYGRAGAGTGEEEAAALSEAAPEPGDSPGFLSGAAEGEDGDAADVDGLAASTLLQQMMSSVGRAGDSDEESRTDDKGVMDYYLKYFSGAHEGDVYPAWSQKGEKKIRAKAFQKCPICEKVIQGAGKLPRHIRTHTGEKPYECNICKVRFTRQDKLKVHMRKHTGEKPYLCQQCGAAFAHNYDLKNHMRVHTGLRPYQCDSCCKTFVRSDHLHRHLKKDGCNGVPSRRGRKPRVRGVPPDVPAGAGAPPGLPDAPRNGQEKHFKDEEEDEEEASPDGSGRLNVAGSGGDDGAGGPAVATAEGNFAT

[4] = biological target: Sequestosome-1 (Mus musculus) (UniProt Q64337); test: Inhibition of Sequestosome-1 in mouse C2C12 cells assessed as reduction in phospho-sites occupancy at 4 uM after 5 hrs by SILAC based LC-MS/MS analysis relative to control
Sequence of Sequestosome-1 (Mus musculus) (Q64337 whole entry, the tested form may be a part): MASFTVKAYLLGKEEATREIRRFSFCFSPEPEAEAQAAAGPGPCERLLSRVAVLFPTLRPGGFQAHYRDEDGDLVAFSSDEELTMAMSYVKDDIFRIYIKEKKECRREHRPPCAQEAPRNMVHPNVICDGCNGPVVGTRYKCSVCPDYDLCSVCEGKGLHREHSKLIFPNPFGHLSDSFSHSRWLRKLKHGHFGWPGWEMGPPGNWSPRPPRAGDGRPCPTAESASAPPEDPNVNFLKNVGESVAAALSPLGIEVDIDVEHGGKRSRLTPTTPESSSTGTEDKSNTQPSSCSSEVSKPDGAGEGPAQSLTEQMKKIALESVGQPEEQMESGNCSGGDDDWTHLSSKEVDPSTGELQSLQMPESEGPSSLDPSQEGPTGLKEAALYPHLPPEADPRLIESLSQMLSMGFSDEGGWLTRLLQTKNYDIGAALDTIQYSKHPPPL

[5] = biological target: LIM domain and actin-binding protein 1 (Mus musculus) (UniProt Q9ERG0); test: Inhibition of Lima1 in mouse C2C12 cells assessed as reduction in phospho-sites occupancy at 4 uM after 5 hrs by SILAC based LC-MS/MS analysis relative to control
Sequence of LIM domain and actin-binding protein 1 (Mus musculus) (Q9ERG0 whole entry, the tested form may be a part): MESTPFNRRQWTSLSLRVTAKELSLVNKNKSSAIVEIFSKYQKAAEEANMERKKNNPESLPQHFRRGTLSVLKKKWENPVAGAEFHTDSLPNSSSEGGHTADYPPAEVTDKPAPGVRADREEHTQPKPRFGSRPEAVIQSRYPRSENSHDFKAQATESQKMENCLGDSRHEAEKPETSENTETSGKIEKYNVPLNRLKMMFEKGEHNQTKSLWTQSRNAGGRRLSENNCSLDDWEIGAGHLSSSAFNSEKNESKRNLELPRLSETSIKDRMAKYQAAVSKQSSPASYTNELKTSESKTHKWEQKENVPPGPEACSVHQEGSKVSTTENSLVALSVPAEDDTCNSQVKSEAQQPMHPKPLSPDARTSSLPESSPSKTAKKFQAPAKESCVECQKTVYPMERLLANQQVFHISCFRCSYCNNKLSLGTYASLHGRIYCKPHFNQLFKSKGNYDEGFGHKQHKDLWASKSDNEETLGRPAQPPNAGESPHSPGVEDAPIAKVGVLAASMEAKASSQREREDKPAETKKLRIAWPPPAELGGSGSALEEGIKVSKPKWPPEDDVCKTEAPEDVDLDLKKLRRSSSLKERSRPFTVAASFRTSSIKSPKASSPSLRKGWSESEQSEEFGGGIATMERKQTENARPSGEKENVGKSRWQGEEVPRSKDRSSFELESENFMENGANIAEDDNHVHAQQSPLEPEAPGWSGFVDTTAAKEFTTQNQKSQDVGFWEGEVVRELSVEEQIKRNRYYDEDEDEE

[6] = biological target: Band 4.1-like protein 1 (Mus musculus) (UniProt Q9Z2H5); test: Inhibition of Epb41l1in mouse C2C12 cells assessed as reduction in phospho-sites occupancy at 4 uM after 5 hrs by SILAC based LC-MS/MS analysis relative to control
Sequence of Band 4.1-like protein 1 (Mus musculus) (Q9Z2H5 whole entry): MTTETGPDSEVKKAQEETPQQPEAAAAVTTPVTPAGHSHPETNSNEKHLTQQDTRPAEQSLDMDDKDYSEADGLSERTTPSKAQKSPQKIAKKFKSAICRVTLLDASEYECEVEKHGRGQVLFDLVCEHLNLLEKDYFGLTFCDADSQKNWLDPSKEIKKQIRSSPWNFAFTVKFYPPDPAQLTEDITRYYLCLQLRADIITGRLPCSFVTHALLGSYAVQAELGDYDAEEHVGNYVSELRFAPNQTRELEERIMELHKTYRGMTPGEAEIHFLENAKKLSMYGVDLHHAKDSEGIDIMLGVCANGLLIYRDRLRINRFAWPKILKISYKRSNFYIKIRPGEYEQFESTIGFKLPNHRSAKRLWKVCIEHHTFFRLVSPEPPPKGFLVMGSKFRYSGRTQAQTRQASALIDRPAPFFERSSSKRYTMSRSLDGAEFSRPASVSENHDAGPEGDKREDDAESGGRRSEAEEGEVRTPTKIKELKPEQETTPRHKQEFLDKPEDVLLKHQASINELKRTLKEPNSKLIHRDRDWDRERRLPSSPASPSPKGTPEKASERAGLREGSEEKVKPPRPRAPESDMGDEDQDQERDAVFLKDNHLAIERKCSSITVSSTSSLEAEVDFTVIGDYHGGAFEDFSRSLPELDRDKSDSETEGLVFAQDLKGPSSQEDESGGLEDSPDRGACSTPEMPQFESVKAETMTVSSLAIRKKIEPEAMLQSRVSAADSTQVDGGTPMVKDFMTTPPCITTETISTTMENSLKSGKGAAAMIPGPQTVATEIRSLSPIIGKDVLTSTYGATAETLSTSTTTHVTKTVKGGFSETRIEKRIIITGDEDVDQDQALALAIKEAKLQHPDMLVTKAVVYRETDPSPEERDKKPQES

[7] = biological target: Charged multivesicular body protein 3 (Mus musculus) (UniProt Q9CQ10); test: Inhibition of Chmp3 in mouse C2C12 cells assessed as reduction in phospho-sites occupancy at 4 uM after 5 hrs by SILAC based LC-MS/MS analysis relative to control
Sequence of Charged multivesicular body protein 3 (Mus musculus) (Q9CQ10 whole entry): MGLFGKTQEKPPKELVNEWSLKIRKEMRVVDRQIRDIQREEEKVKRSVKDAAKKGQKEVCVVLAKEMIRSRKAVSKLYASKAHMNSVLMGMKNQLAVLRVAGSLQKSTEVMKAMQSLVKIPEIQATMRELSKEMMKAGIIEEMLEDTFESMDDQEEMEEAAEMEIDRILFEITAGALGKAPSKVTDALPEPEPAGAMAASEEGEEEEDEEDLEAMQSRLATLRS

[8] = biological target: Dihydropyrimidinase-related protein 3 (Mus musculus) (UniProt Q62188); test: Inhibition of Dihydropyrimidinase-related protein 3 in mouse C2C12 cells assessed as reduction in phospho-sites occupancy at 4 uM after 5 hrs by SILAC based LC-MS/MS analysis relative to control
Sequence of Dihydropyrimidinase-related protein 3 (Mus musculus) (Q62188 whole entry): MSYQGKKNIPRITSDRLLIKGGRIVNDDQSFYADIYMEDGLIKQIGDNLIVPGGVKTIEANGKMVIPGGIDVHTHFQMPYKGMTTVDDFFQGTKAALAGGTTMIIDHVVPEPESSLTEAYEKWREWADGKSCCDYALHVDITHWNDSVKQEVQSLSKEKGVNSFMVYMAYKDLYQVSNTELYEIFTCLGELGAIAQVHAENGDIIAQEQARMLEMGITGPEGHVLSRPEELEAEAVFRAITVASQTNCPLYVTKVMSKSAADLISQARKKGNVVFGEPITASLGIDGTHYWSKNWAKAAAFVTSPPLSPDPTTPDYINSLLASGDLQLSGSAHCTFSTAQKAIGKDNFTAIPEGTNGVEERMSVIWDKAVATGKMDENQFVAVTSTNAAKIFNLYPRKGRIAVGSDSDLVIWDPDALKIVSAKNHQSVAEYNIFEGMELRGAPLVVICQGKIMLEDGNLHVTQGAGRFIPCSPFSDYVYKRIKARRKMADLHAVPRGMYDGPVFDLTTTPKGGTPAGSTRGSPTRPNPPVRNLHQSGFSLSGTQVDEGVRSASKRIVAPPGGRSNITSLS

[9] = biological target: Casein kinase 2 (Mus musculus) (UniProt Q60737+P67871+O54833+Q8CH19); test: Inhibition of CK2 in mouse C2C12 cells assessed as reduction in CK2 substrates phosphorylation at 1 to 4 uM by Western blot analysis; details: dose 1-4 µM

`COc1cc(/C=N/n2c(SC)nnc2-c2ccccc2)c(Br)cc1O` was tested, and the fold change (FC) [1] was 1.61, the fold change (FC) [2] was 1.66 and the fold change (FC) [3] was 1.89. It also gave a fold change (FC) [4] of 2.35, a fold change (FC) [5] of 2.39 and a fold change (FC) [6] of 2.85. For the same molecule, the fold change (FC) [7] was 3.19, the fold change (FC) [8] was 3.25 and the inhibition [9] was “Active”.
